Assay results reported in patent US9714231B2, “Pyrrolidine GPR40 modulators” (BRISTOL-MYERS SQUIBB COMPANY, priority 2012, dated 2017).
pEC50: −log10 of the molar value. Structures can show the parent of a compound that is named as a salt. Where two headings read alike, the source gives them in different places.

Assays:
[1] = target: T1, human GPR40 (Homo sapiens, UniProt O14842); assay: FDSS-based intracellular calcium assay (Human GRP40 in vitro assay); assay type: cell-based; parameters: 3xFLAG; expressed in transfected cells; settings: cells expressing GPR40, intracellular Ca2+ response, FDSS reader; read-out: hGPR40 EC50
T1 sequence (O14842 whole entry): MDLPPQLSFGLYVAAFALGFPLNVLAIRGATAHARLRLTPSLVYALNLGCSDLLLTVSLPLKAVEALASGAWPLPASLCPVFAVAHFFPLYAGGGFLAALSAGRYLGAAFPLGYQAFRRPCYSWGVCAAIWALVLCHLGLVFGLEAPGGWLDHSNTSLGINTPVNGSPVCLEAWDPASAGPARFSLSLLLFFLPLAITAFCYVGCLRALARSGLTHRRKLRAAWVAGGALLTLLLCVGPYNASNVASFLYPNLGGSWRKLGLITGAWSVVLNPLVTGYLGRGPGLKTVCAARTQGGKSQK
How it was run: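 GPR40-expressing cells, plated overnight in serum-free phenol red-free DMEM, loaded with Fluo-3 in HBSS with 1.7 mM probenecid for 30 min at 37° C. Compounds in DMSO, diluted in assay buffer, added as 3× solutions; intracellular Ca^2+ response read on FDSS.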

[2] = target: T1, human GPR40

Row | SMILES | pEC50 [1] | pEC50 [2]
1 | COc1ccc(C2CCCC2)c(N2CCC(Oc3ccc(N4C[C@H](OC)C[C@@H]4CC(=O)O)cc3)CC2)c1 [Example 61, 2-((2R,4R)-1-(4-(1-(2-Cyclopentyl-5-methoxyphenyl)piperidin-4-yloxy)phenyl)-4-methoxypyrrolidin-2-yl)acetic acid] | 6.92 | 7.80
2 | COc1ccc(CCC(C)(C)C)c(N2CCC(Oc3ccc(N4C[C@H](OC)C[C@@H]4CC(=O)O)cc3)CC2)c1 [Example 62, 2-((2R,4R)-1-(4-(1-(2-(3,3-Dimethylbutyl)-5-methoxyphenyl)piperidin-4-yloxy)phenyl)-4-methoxypyrrolidin-2-yl)acetic acid] | 7.05 | 7.89
3 | CCOc1ccc(F)c(N2CCC(Oc3ccc(N4C[C@H](C(F)(F)F)C[C@@H]4CC(=O)O)cc3)CC2)c1 [Example 85, 2-((2R,4R)-1-(4-((1-(5-Ethoxy-2-fluorophenyl)piperidin-4-yl)oxy)phenyl)-4-(trifluoromethyl)pyrrolidin-2-yl)acetic acid] | 6.49 | 7.15
4 | COc1cc(N2CCC(Oc3ccc(N4C[C@H](OC)[C@@H](C)[C@@H]4CC(=O)O)cn3)C(C)C2)c(Cl)cn1 (stereo partly drawn) [Example 91, 2-((2S,3S,4R)-1-(6-(((3,4-trans)-1-(5-Chloro-2-methoxypyridin-4-yl)-3-methylpiperidin-4-yl)oxy)pyridin-3-yl)-4-methoxy-3-methylpyrrolidin-2-yl)acetic acid, HCl] | 6.72 | 7.74
5 | COc1cc(N2CCC(Oc3ccc(N4C[C@H](OC)C[C@@H]4CC(=O)O)cc3)CC2)c(F)cn1 [Example 96, 2-((2R,4R)-1-(4-((1-(5-Fluoro-2-methoxypyridin-4-yl)piperidin-4-yl)oxy)phenyl)-4-methoxypyrrolidin-2-yl)acetic acid, diethylammonium salt] | 6.08 | 6.28
6 | COc1cc(N2CCC(Oc3ccc(N4C[C@H](OC)[C@@H](C)[C@@H]4CC(=O)O)cc3F)C(C)C2)c(Cl)cn1 (stereo partly drawn) [Example 98, 2-((2S,3S,4R)-1-(4-(((3,4-trans)-1-(5-Chloro-2-methoxypyridin-4-yl)-3-methylpiperidin-4-yl)oxy)-3-fluorophenyl)-4-methoxy-3-methylpyrrolidin-2-yl)acetic acid] | 6.99 | 7.00
7 | COc1cc(N2CCC(Oc3ccc(N4C[C@H](OC)[C@@H](C)[C@@H]4CC(=O)O)cc3F)CC2)c(Cl)cn1 [Example 99, 2-((2S,3S,4R)-1-(4-((1-(5-Chloro-2-methoxypyridin-4-yl)piperidin-4-yl)oxy)-3-fluorophenyl)-4-methoxy-3-methylpyrrolidin-2-yl)acetic acid] | 6.54 | 6.54
8 | COc1cc(N2CCC(Cc3ccc(N4C[C@H](OC)C[C@@H]4CC(=O)O)cc3)CC2)c(Cl)cn1 [Example 102, 2-((2R,4R)-1-(4-((1-(5-Chloro-2-methoxypyridin-4-yl)piperidin-4-yl)methyl)phenyl)-4-methoxypyrrolidin-2-yl)acetic acid] | 6.02 | 6.02
9 | COc1cc(N2CCC(Oc3ccc(N4C[C@H](O)[C@@H](C)[C@@H]4CC(=O)O)c(F)c3)C(C)C2)c(Cl)cn1 (stereo partly drawn) [Example 115, 2-((2S,3S,4R)-1-(4-(((3,4-trans)-1-(5-Chloro-2-methoxypyridin-4-yl)-3-methylpiperidin-4-yl)oxy)-2-fluorophenyl)-4-hydroxy-3-methylpyrrolidin-2-yl)acetic acid] | 5.79 | 5.80
10 | CCOc1ccc(F)c(N2CCC(Oc3ccc(N4C[C@H](OC)[C@@H](C)[C@@H]4CC(=O)O)cn3)C(C)C2)c1 (stereo partly drawn) [Example 117, 2-((2S,3S,4R)-1-(6-(((3,4-trans)-1-(5-Ethoxy-2-fluorophenyl)-3-methylpiperidin-4-yl)oxy)pyridin-3-yl)-4-methoxy-3-methylpyrrolidin-2-yl)acetic acid, HCl] | 6.85 | 7.85
11 | COc1cc(N2CCC(Oc3ccc(N4C[C@H](OC)[C@@H](C)[C@@H]4CC(=O)O)cc3)C(C)C2)c(Cl)cn1 (stereo partly drawn) [Example 119, 2-((2S,3S,4R)-1-(4-(((3,4-trans)-1-(5-Chloro-2-methoxypyridin-4-yl)-3-methylpiperidin-4-yl)oxy)phenyl)-4-methoxy-3-methylpyrrolidin-2-yl)acetic acid, HCl] | 7.12 | 7.96
12 | CCOc1ccc(F)c(N2CCC(Oc3ccc(N4C[C@H](OC)[C@@H](C)[C@@H]4CC(=O)O)cc3)CC2)c1 [Example 121, 2-((2S,3S,4R)-1-(4-((1-(5-Ethoxy-2-fluorophenyl)piperidin-4-yl)oxy)phenyl)-4-methoxy-3-methylpyrrolidin-2-yl)acetic acid, TFA] | 6.85 | 7.38
13 | CCOc1ccc(F)c(N2CCC(Oc3ccc(N4C[C@H](c5ccc(OC)nc5)C[C@@H]4CC(=O)O)cc3)CC2)c1 [Example 123, 2-((2R,4S)-1-(4-((1-(5-Ethoxy-2-fluorophenyl)piperidin-4-yl)oxy)phenyl)-4-(6-methoxypyridin-3-yl)pyrrolidin-2-yl)acetic acid, TFA] | 6.57 | 7.29
14 | CCOc1ccc(F)c(N2CCC(Oc3ccc(N4C[C@H](Cc5cccc(OC)c5)C[C@@H]4CC(=O)O)cc3)CC2)c1 [Example 124, 2-((2R,4R)-1-(4-((1-(5-Ethoxy-2-fluorophenyl)piperidin-4-yl)oxy)phenyl)-4-(3-methoxybenzyl)pyrrolidin-2-yl)acetic acid, TFA] | 6.42 | 7.33
15 | COc1cc(N2CCC(Oc3ccc(N4C[C@H](OC)C[C@@H]4CC(=O)O)cn3)C(C)C2)c(Cl)cn1 (stereo partly drawn) [Example 132, 2-((2R,4R)-1-(6-(((3,4-trans)-1-(5-Chloro-2-methoxypyridin-4-yl)-3-methylpiperidin-4-yl)oxy)pyridin-3-yl)-4-methoxypyrrolidin-2-yl)acetic acid] | 6.60 | 7.26
16 | COc1cc(N2CCC(Oc3ccc(N4C[C@H](C(F)(F)F)C[C@@H]4CC(=O)O)cn3)C(C)C2)c(Cl)cn1 (stereo partly drawn) [Example 133, 2-((2R,4R)-1-(6-(((3,4-trans)-1-(5-Chloro-2-methoxypyridin-4-yl)-3-methylpiperidin-4-yl)oxy)pyridin-3-yl)-4-(trifluoromethyl)pyrrolidin-2-yl)acetic acid] | 6.42 | 7.31
17 | COc1cc(N2CCC(Oc3ccc(N4C[C@H](C(F)(F)F)C[C@@H]4CC(=O)O)c(F)c3)C(C)C2)c(Cl)cn1 (stereo partly drawn) [Example 138] | 6.72 | 7.57
18 | COc1cc(N2CCC(Oc3ccc(N4C[C@H](OC)C[C@@H]4CC(=O)O)c(F)c3)C(C)C2)c(Cl)cn1 (stereo partly drawn) [Example 139, 2-((2R,4R)-1-(4-((3,4-trans)-1-(5-Chloro-2-methoxypyridin-4-yl)-3-methylpiperidin-4-yloxy)-2-fluorophenyl)-4-methoxypyrrolidin-2-yl)acetic acid] | 6.64 | 7.66
19 | COc1cc(N2CCC(Oc3ccc(N4C[C@H](C(F)(F)F)C[C@@H]4CC(=O)O)c(F)c3F)C(C)C2)c(Cl)cn1 (stereo partly drawn) [Example 140, 2-((2R,4R)-1-(4-((3,4-trans)-1-(5-Chloro-2-methoxypyridin-4-yl)-3-methylpiperidin-4-yloxy)-2,3-difluorophenyl)-4-(trifluoromethyl)pyrrolidin-2-yl)acetic acid] | 6.60 | 7.14
20 | COc1cc(N2CCC(Oc3ccc(N4C[C@H](OC)C[C@@H]4CC(=O)O)cc3F)C(C)C2)c(Cl)cn1 (stereo partly drawn) [Example 142, 2-((2R,4R)-1-(4-((3,4-trans)-1-(5-Chloro-2-methoxypyridin-4-yl)-3-methylpiperidin-4-yloxy)-3-fluorophenyl)-4-methoxypyrrolidin-2-yl)acetic acid, TFA] | 6.57 | 7.51
21 | COc1cc(N2CCC(Oc3cc(F)c(N4C[C@H](OC)C[C@@H]4CC(=O)O)c(F)c3)C(C)C2)c(Cl)cn1 (stereo partly drawn) [Example 144, 2-((2R,4R)-1-(4-((3,4-trans)-1-(5-Chloro-2-methoxypyridin-4-yl)-3-methylpiperidin-4-yloxy)-2,6-difluorophenyl)-4-methoxypyrrolidin-2-yl)acetic acid, TFA] | 5.47 | 5.60
